Reference: patent US11571454B2, “Anticancer peptides that synergistically enhance chemotherapeutic potency” (The Penn State Research Foundation, priority 2017, dated 2023)

How the values were obtained:
[1] = system: OVCAR-3 ovarian carcinoma cells
[2] = system: cleaved caspase 3 in OVCAR-3 cells; assay: Western blot of cleaved caspase 3; type: cell-based, human; settings: 1× and 2× IC50; activation at 48 hours
Method: For western blots, OVCAR-3 cells were first seeded at 2.5×10^5 cells/well in a 6 well plate and allowed to adhere overnight. Cells were then treated in 5% FBS media with 1×IC50 and 2×IC50, with untreated controls of media alone. Following 2 or 48 hours of treatment, the whole-cell protein lysates were prepared in RIPA buffer (50 mM Tris.NaOH at pH 7.4, 150 mM NaCl, 1% IGEPAL-CA630 [octylphenoxy poly(ethyleneoxy)ethanol], 0.5% sodium deoxycholate, 0.1% SDS, 2 mM EDTA, protease/phosphatase inhibitors) by first scraping the bottom of the well and subsequently briefly sonicated. The lysates were centrifuged to clear cellular debris, separated by 12% SDS-PAGE, and transferred to a 0.2 μm Nitrocellulose Membrane using the Bio-Rad Trans-Blot Turbo transfer machine (Bio-Rad, Hercules, Calif., USA) according to the manufacturer's protocols. The blot was incubated in 5% Immunoanalytical Grade Non-fat Dry Milk for 1 hour, followed by incubation with antibodies against cleaved caspase-3 (1:1000) or actin (1:1000) at 4° C. for 16 hours. The blots were then incubated with 1:2000 dilution in 1×BSA of anti-mouse or anti-rabbit antibodies for 1 hour before washing with TBST three times for 15 min. and developing using Pierce ECL system according to the manufacturer's protocol.

[3] = system: patient-derived tumor cell spheroids (EOC15, 17, 19); assay: Ex vivo 3D tumor spheroid culture; type: cell-based, human; settings: 2 μM cisplatin or 4 μM MAD1 alone, 48 hours
Method: EOC patient-derived cells were cultured in 1:1 MCDB-105: M199 supplemented with 10% FBS and 1% penicillin-streptomycin. EOC patient-derived cells were provided by Dr. Katherine M. Aird under an Institutional Review Board-approved protocol. EOC patient-derived cells were collected from patient ascites fluid after paracentesis procedures. Cells were routinely tested for mycoplasma as previously described. […] Spheroid length and width was calculated using ImageJ. Spheroid volume was calculated using the following equation […] Statistical Methods […] IC50 values are reported as mean values±standard deviation. […] Pore size frequency distribution was completed by ImageJ FIJI on 4 independent cells and n=30 pores from SEM images. […] Individual UV-Vis and CD spectra, as well as fluorescent confocal and TEM micrographs, shown are representative plots from three individual experiments. CD data is with a variance in ellipticity of 0.2 millidegrees at each wavelength. Relative fluorescence data calculated from fluorescent confocal images represents the average of 10 independent measurements±standard deviation. For spheroid volume analysis, a Kruskal-Wallis test and Dunn's multiple comparisons test was performed using GraphPad Prism 8.

[4] = system: polymicrobial panel (six bacterial lines); assay: Antimicrobial activity against polymicrobial panel; type: cell-based

H-KRWHWWRRHWVVW-NH2 [MAD1]
Therapeutic Index OVCAR-3 ([1]; IC50-HUVEC/IC50-OVCAR-3): 7
IC50 ([1]; read-out: Cancerous (IC50, μM) OVCAR-3, 48 hours treatment, MTT): 14.2 µM
cleaved caspase 3 (western blot) [2]: presence of cleaved caspase 3
spheroid size, single agent [3]: minimal reduction in size
antimicrobial activity against polymicrobial panel [4]: bactericidal activity
